The text below walks through data of ChEMBL document CHEMBL5584357, “Corannulene Amino Acid-Derived Water-Soluble Amphiphilic Buckybowls as Broad-Spectrum Membrane Targeting Antibacterial Agents” (J Med Chem, 2024).

Values after ≈ are worked out from the molar mass of the structure shown. Active and inactive are the calls of the source. Peptide text beside a SMILES is read from it.

Broadly, the MIC is the least concentration at which growth counts as inhibited. The low end stands for greater potency, the high end for weaker potency. The MBC is the smallest concentration meeting the test's criterion for killing.

For data set [1], the system named is Pseudomonas aeruginosa. The experiment in a line: Antibacterial activity against Pseudomonas aeruginosa ATCC BAA-427 incubated for 16 to 18 hrs by broth microdilution method. It is filed as functional. Particulars: time 16-18 hrs. (Broth dilution looks for growth in wells or tubes with falling amounts of substance.)
For data set [2], the system named is Staphylococcus aureus. The experiment in a line: Antibacterial activity against Staphylococcus aureus ATCC 25923 infected in BALB/c mouse assessed as bacterial load in liver at 30 mg/kg, ip measured after 18 hrs (Rvb ~ 1.75 x10^7). It is filed as functional.
The test system of data set [3] is Staphylococcus aureus. The data set is described as follows: Induction of cell membrane damage in Staphylococcus aureus ATCC 25923 assessed as membrane blebbing at 5 times MIC incubated for 60 mins by SEM analysis. The data set is classed as functional, organism-based.
For data set [4], the system named is Staphylococcus aureus. The experiment in a line: Induction of cell membrane damage in Staphylococcus aureus ATCC 25923 assessed as bacterial content leakage at 5 times MIC incubated for 60 mins by SEM analysis. It is filed as functional, organism-based.
Data set [5] concerns Escherichia coli. The data set is described as follows: Induction of cell membrane damage in Escherichia coli ATCC 25922 at 1 to 5 times MIC by SYTOX green fluorescence based analysis. The data set is classed as functional, organism-based.
Data set [6] has as its system Erythrocyte. The data set is described as follows: Hemolytic activity against human RBCs upto 70 uM incubated for 45 mins by absorbance based assay. It is filed as toxicity, cell-based. The settings on record: 0.75 h.
Data set [7] concerns Staphylococcus aureus. The data set is described as follows: Induction of cell membrane damage in Staphylococcus aureus ATCC 25923 at 5 times MIC incubated for 60 mins by PI staining based FACS analysis. It is filed as functional, organism-based. A general note: In flow cytometry, cells or beads pass a laser one at a time.
A short description of data set [8]: Acute toxicity in BALB/c mouse assessed as animal survival at 50 mg/kg, ip measured for 7 days. The data set is classed as organism-based. Particulars: in vivo, 168 h, time 7 day.
Data set [9] relates to Escherichia coli. The experiment in a line: Antibacterial activity against Escherichia coli ATCC 25922 incubated for 16 to 18 hrs by broth microdilution method. The settings on record: time 16-18 hrs. The data set is classed as functional.
Data set [10] is described as follows: Cytotoxicity against mouse 3T3-L1 cells assessed as cell viability upto 60 uM incubated for 4 hrs by MTT assay relative to control. Particulars: read-out: Activity. It is filed as toxicity, cell-based. For orientation: Tetrazolium assays rely on reduction of a dye to a coloured formazan, in cell work by metabolically active cells.
The test system of data set [11] is Staphylococcus aureus. The experiment in a line: Antibacterial activity against methicillin-resistant Staphylococcus aureus ATCC BAA-44 incubated for 16 to 18 hrs by broth microdilution method. The data set is classed as functional. The settings on record: time 16-18 hrs.
In data set [12] the test system is Staphylococcus aureus. The experiment in a line: Antimicrobial activity against vancomycin-resistant Staphylococcus aureus. It is filed as functional, organism-based.
The test system of data set [13] is Staphylococcus aureus. The experiment in a line: Antibacterial activity against Staphylococcus aureus ATCC 25923 infected in BALB/c mouse assessed as bacterial load in spleen at 30 mg/kg, ip measured after 18 hrs (Rvb ~ 1 x10^7). It is filed as functional.
Data set [14] is described as follows: Acute toxicity in BALB/c mouse assessed as signs of toxicity at 50 mg/kg, ip measured for 7 days. Particulars: in vivo, 168 h, time 7 day. The data set is classed as organism-based.
Data set [15] deals with Escherichia coli. The data set is described as follows: Bactericidal activity against Escherichia coli ATCC 25922 incubated for 16 hrs. The data set is classed as functional.
In data set [16] the test system is Staphylococcus aureus. The experiment in a line: Antibacterial activity against Staphylococcus aureus ATCC 25923 incubated for 16 to 18 hrs by broth microdilution method. The data set is classed as functional. Particulars: time 16-18 hrs.
Data set [17] is described as follows: Toxicity in BALB/c mouse assessed as animal death at 15 to 30 mg/kg, ip measured for 18 hrs. The data set is classed as organism-based. Particulars: in vivo, dose 15-30 mg/kg.
The subject of data set [18] is Escherichia coli. The experiment in a line: Induction of cell membrane damage in Escherichia coli ATCC 25922 assessed as wrinkling on bacterial surface at 5 times MIC incubated for 60 mins by SEM analysis. The data set is classed as functional, organism-based.
Data set [19] concerns Acinetobacter baumannii. The experiment in a line: Antibacterial activity against Acinetobacter baumanni ATCC 19606 incubated for 16 to 18 hrs by broth microdilution method. The settings on record: time 16-18 hrs. The data set is classed as functional.
Data set [20] has as its system Staphylococcus aureus. The experiment in a line: Bactericidal activity against Staphylococcus aureus VRS1 at 1 to 4 times MIC by time kill assay. It is filed as functional, organism-based. Particulars: time <= 24.0 hrs.
Data set [21] relates to Staphylococcus aureus. The data set is described as follows: Induction of cell membrane damage in Staphylococcus aureus ATCC 25923 assessed as membrane distortion at 5 times MIC incubated for 60 mins by SEM analysis. It is filed as functional, organism-based.
The test system of data set [22] is Staphylococcus aureus. The data set is described as follows: Bactericidal activity against Staphylococcus aureus ATCC 25923 incubated for 16 hrs. The data set is classed as functional.
The test system of data set [23] is Staphylococcus aureus. The experiment in a line: Antimicrobial activity against methicillin-resistant Staphylococcus aureus. It is filed as functional, organism-based.
The subject of data set [24] is Staphylococcus aureus. The experiment in a line: Induction of cell membrane damage in Staphylococcus aureus ATCC 25923 at 1 to 5 times MIC by SYTOX green fluorescence based analysis. The data set is classed as functional, organism-based.
Data set [25] has as its system Staphylococcus aureus. The experiment in a line: Bactericidal activity against Staphylococcus aureus VRS1 at 4 times MIC incubated for 6 hrs by time kill assay relative to control. It is filed as functional.
In data set [26] the test system is Escherichia coli. The experiment in a line: Induction of cell membrane damage in Escherichia coli ATCC 25922 assessed as membrane blebbing at 5 times MIC incubated for 60 mins by SEM analysis. The data set is classed as functional, organism-based.
Data set [27] has as its system Staphylococcus aureus. The experiment in a line: Antibacterial activity against Staphylococcus aureus ATCC 25923 infected in BALB/c mouse assessed as bacterial load in blood at 30 mg/kg, ip measured after 18 hrs (Rvb ~ 6 x10^6). The data set is classed as functional.
Data set [28] deals with Staphylococcus aureus. The data set is described as follows: Antibacterial activity against Staphylococcus aureus ATCC 25923 infected in BALB/c mouse assessed as bacterial load in lung at 30 mg/kg, ip measured after 18 hrs (Rvb ~ 5 x10^6). The data set is classed as functional.
For data set [29], the system named is Escherichia coli. The experiment in a line: Induction of cell membrane damage in Escherichia coli ATCC 25922 at 5 times MIC incubated for 60 mins by PI staining based FACS analysis. The data set is classed as functional, organism-based.
Data set [30] relates to Staphylococcus aureus. The experiment in a line: Antibacterial activity against methicillin-resistant Staphylococcus aureus ATCC 33591 incubated for 16 to 18 hrs by broth microdilution method. The data set is classed as functional. Particulars: time 16-18 hrs.
Data set [31] concerns Staphylococcus aureus. The data set is described as follows: Bactericidal activity against Staphylococcus aureus VRS1 at 4 times MIC incubated for 24 hrs by time kill assay relative to control. It is filed as functional.
For data set [32], the system named is Staphylococcus aureus. The experiment in a line: Induction of cell membrane damage in Staphylococcus aureus ATCC 25923 at 5 times MIC incubated for 60 mins by SEM analysis. The data set is classed as functional, organism-based.

Take `COC(=O)[C@H](Cc1cc2ccc3ccc4ccc5ccc1c1c5c4c3c21)NC(=O)[C@@H](N)CCCCN.Cl.Cl`: the MIC worked out at 200 µM in data set [1]; 50 µM in data set [9]; 12.5 µM in data set [11]; 25 µM in data set [16]; 200 µM in [19]; 25 µM in data set [30]. In addition, the Activity in [2] is listed as ~1.2 10^6CFU/ml; in data set [6], “Non-Toxic”; in data set [8], “Non-Toxic”; in data set [13], ~6.5 10^5CFU/ml; in [14], “Non-Toxic”; in [17], “Non-Toxic”. Besides, the Activity result was “Dose-Dependent Effect” in data set [20], 100% in data set [25], ~7 10^4CFU/ml in [27] and ~4.5 10^4CFU/ml in data set [28]. The result in data set [3], in [4], in data set [7], in [12], in [18] and in data set [21] was Active. In addition, the outcome in data set [23], in [24], in data set [26] and in data set [29] was Active. Moreover, in data set [5], the result was inactive. Further, the viability at 4 h, up to 60 µM in data set [10] turned out to be 71%. Further, the MBC in data set [15] and in data set [22] was 50 µM throughout.

On to `COC(=O)[C@H](CCCc1cc2ccc3ccc4ccc5ccc1c1c5c4c3c21)NC(=O)[C@@H](N)CCCCN`, for which the MIC in data set [1] is 25 µM (≈ 12.7 µg/mL); in [9], 25 µM (≈ 12.7 µg/mL); in [11], 12.5 µM (≈ 6.35 µg/mL); in data set [16] it was 12.5 µM (≈ 6.35 µg/mL); in data set [19] it was 25 µM (≈ 12.7 µg/mL); in [30], 12.5 µM (≈ 6.35 µg/mL). For the same compound, the result in data set [3], in [4], in data set [7], in data set [18], in [21] and in data set [24] was Active. Also, the result in [26] and in data set [29] was Active. In addition, in data set [5], the outcome was inactive. Moreover, the viability at 4 h, up to 60 µM in [10] was found to be 41%. For the same compound, the MBC was determined as 25 µM (≈ 12.7 µg/mL) in data set [15] and 12.5 µM (≈ 6.35 µg/mL) in data set [22].

In turn, `CCCCCCCCCC(=O)N[C@@H](Cc1c[nH]c2ccccc12)C(=O)N[C@H](CC(N)=O)C(=O)N[C@@H](CC(=O)O)C(=O)N[C@@H]1C(=O)NCC(=O)N[C@@H](CCCN)C(=O)N[C@@H](CC(=O)O)C(=O)N[C@H](C)C(=O)N[C@@H](CC(=O)O)C(=O)NCC(=O)N[C@H](CO)C(=O)N[C@@H]([C@H](C)CC(=O)O)C(=O)N[C@@H](CC(=O)c2ccccc2N)C(=O)O[C@@H]1C` had an Activity in [31] of 100%.

For the compound `CC[C@H](C)[C@H](NC(=O)[C@H](CCCNC(=N)N)NC(=O)CNC(=O)[C@H](CC(C)C)NC(=O)[C@H](Cc1ccccc1)NC(=O)[C@H](CCCCN)NC(=O)[C@H](CO)NC(=O)[C@H](Cc1ccccc1)NC(=O)[C@H](Cc1c[nH]c2ccccc12)NC(=O)[C@H](CCC(N)=O)NC(=O)[C@@H](NC(=O)[C@@H](N)Cc1ccccc1)C(C)C)C(=O)N[C@@H](CC(C)C)C(N)=O` (H-FVQWFSKFLGRIL-NH2), the outcome in [32] was Active.

With `COC(=O)[C@H](Cc1cc2ccc3ccc4ccc5ccc1c1c5c4c3c21)NC(=O)[C@H](N)CCCCN`, the MIC was 50 µM (≈ 24 µg/mL) in [1]; 100 µM (≈ 48 µg/mL) in data set [9]; 25 µM (≈ 12 µg/mL) in data set [11]; 25 µM (≈ 12 µg/mL) in [16]; 50 µM (≈ 24 µg/mL) in [19]; 25 µM (≈ 12 µg/mL) in [30]. The result in data set [3], in data set [4], in [7], in data set [18], in data set [21] and in [24] was Active. The outcome in [26] and in data set [29] was Active. The outcome in [5] was inactive. For the same compound, the viability at 4 h, up to 60 µM in data set [10] came out at 3%. Also, the MBC was found to be 200 µM (≈ 95.9 µg/mL) in data set [15] and 50 µM (≈ 24 µg/mL) in [22].
